# Assay results taken from patent US8993606B2, “Oral formulations for treating metal overload” (FerroKin BioSciences, Inc., priority 2011, dated 2015).
# Structures can show the parent of a compound that is named as a salt.
# Legend:
# Assay type in all cases: physicochemical
# [1] = Dynamic vapor sorption/desorption (DVS)
# Source text: As described above, Form D was obtained via DVS experimentation with Form B, and Form B was generated with crystallization experiments using solvent mixtures containing methanol or water (e.g., MeOH/acetone, IPA/MeOH, heptane/MeOH, water (solvent grinding), water (antisolvent precipitation), or water (slurry at ambient)). DVS experimentation with Form B is as follows: Dynamic vapor sorption/desorption (DVS) data were collected on a VTI SGA-100 Vapor Sorption Analyzer. Sorption and desorption data were collected over a range of 5% to 95% relative humidity (RH) at 10% RH intervals under a nitrogen purge. Samples were not dried prior to analysis. Equilibrium criteria used for analysis were less than 0.0100% weight change in 5 minutes, with a maximum equilibration time of 3 hours if the weight criterion was not met. Data were not corrected for the initial moisture content of the sample. Sodium chloride and polyvinylpyrrolidine were used as calibration standards.
# [2] = Vapor stress experiments of amorphous magnesium salt, XRPD result; set-up: key: IS stands for insufficient solid
# Source text: The results of vapor stress experiments of amorphous (S)-3′-(OH)-DADFT-PE magnesium salt are given below in Table 37, wherein LC stands for low crystallinity and IS stands for insufficient solid.
# [3] = Vapor diffusion experiments of amorphous magnesium salt, XRPD result; conditions: antisolvent Hexanes
# Source text: The results of vapor diffusion experiments of amorphous (S)-3′-(OH)-DADFT-PE magnesium salt are given below in Table 38, wherein LC stands for low crystallinity.
# [4] = Slurry experiments of magnesium salt form A, XRPD result; set-up: key: IS stands for insufficient solid
# Source text: The results of slurry experiments of (S)-3′-(OH)-DADFT-PE magnesium salt form A are given below in Table 36, wherein d stands for day, and IS stands for insufficient solid.
# [5] = Solvent grinding experiments of magnesium salt form A, XRPD result; conditions: solvent printed as — (none)
# Source text: The results of solvent grinding experiments of (S)-3′-(OH)-DADFT-PE magnesium salt form A are given below in Table 39, wherein LC stands for low crystallinity.
# [6] = Aqueous solubility of salts; conditions: tromethamine salt; read-out: aqueous solubility
# Source text: Typically, oral formulations described herein facilitate solubilizing an active ingredient (e.g., a desazadesferrithiocin analog, salt or polymorph) at a desired amount or rate suitable for the treatment of metal overload. As used herein, the term “solubility” is generally intended to be synonymous with the term “aqueous solubility,” and refers to the ability, and the degree of the ability, of a compound to dissolve in water or an aqueous solvent or buffer, as might be found under physiological conditions. Aqueous solubility is, in and of itself, a useful quantitative measure, but it has additional utility as a correlate and predictor, with some limitations which will be clear to those of skill in the art, of oral bioavailability. Typically, a soluble compound is generally desirable, and the more soluble, the better. In liquid formulations, solubility is typically reported in mg/mL, but other measures, such as g/g, may be used. Solubilities typically deemed acceptable may range from 1 mg/mL into the hundreds or thousands of mg/mL.
# Solubility may be measured under varying conditions. For example, it may be measured under conditions similar to those found in the body, such as at gastric pH or at physiologic or near-physiologic pH. “Gastric pH” as used herein means about pH 1. […]
# [7] = Relative humidity stress (deliquescence, hygroscopicity); conditions: ~75% RH stress
smiles,measurement,setting,value
"COCCOCCOCCOc1cccc(C2=N[C@@](C)(C(=O)O)CS2)c1O [Form B, (S)-3′-(OH)-DADFT-PE magnesium salt form B]",hygroscopicity (DVS data),[1],hygroscopic
same,weight loss upon desorption,[1],26.6%
same,additional weight gain during sorption step,"[1]; above 65% RH, without reaching equilibrium weight",21.2%
same,weight loss upon equilibrium,[1]; at 5% RH,10.8%
same,weight gain during sorption step,[1]; from 5% to 65% RH,5.7%
COCCOCCOCCOc1cccc(C2=N[C@@](C)(C(=O)[O-])CS2)c1O.COCCOCCOCCOc1cccc(C2=N[C@@](C)(C(=O)[O-])CS2)c1O.[Mg+2] [listing 1 of 2 here],XRPD Result,"[2]; solvent 1,4-Dioxane",IS
same,XRPD Result,[2]; solvent Acetone,A (LC)
same,XRPD Result,[2]; solvent DCM,IS
same,XRPD Result,[2]; solvent EtOAc,IS
same,XRPD Result,[2]; solvent MEK,IS
same,XRPD Result,[3]; solvent Acetone,A (LC)
same,XRPD Result,[3]; solvent DCM,A (LC)
same,XRPD Result,[3]; solvent EtOAc,A (LC)
same,XRPD Result,[3]; solvent MEK,Amorphous
same,XRPD Result,[3]; solvent THF,A (LC)
same,XRPD Result,[3]; solvent Toluene,A (LC)
COCCOCCOCCOc1cccc(C2=N[C@@](C)(C(=O)[O-])CS2)c1O.COCCOCCOCCOc1cccc(C2=N[C@@](C)(C(=O)[O-])CS2)c1O.[Mg+2] [listing 2 of 2 here],XRPD Result,"[4]; solvent ACN/THF (1:1), 60° C./4 d",A + peaks
same,XRPD Result,"[4]; solvent EtOH/H2O (1:1), Ambient",IS
same,XRPD Result,"[4]; solvent EtOH/H2O (1:9), Ambient",IS
same,XRPD Result,"[4]; solvent Heptane/DCM (2:8), Ambient",A (LC)
same,XRPD Result,"[4]; solvent Heptane/EtOH (2:8), Ambient",Amorphous
same,XRPD Result,"[4]; solvent IPA, 60° C./4 d",Amorphous
same,XRPD Result,"[4]; solvent IPA/Acetone (1:1), Ambient",IS
same,XRPD Result,"[4]; solvent Water, 60° C./1 d",Amorphous
same,XRPD Result,[5],A (LC)
"COCCOCCOCCOc1ccc(C2=N[C@@](C)(C(=O)O)CS2)c(O)c1 [Compound 2, Tromethamine salt of (S)-4′-(OH)-DADFT-PE]",solubility,[6],> 124 mg/mL
same,deliquescence upon RH stress,[7],no apparent deliquescence
same,weight gained,[1]; above ~65% RH,~50.3 wt %
same,water uptake,[1]; below ~65% RH,~1.5 wt %
